Broadly, the Dmax is the largest share of the target that was removed. Low readings indicate a partial loss of target, high ones a fuller loss of target. One may read the DC50 as the concentration at which degradation of the target reaches its halfway point. High values mean a less potent degrader, low ones a more potent degrader.

Structures are written as SMILES.

We go through eleven molecules from patent publication US20250206732A1, “COMPOUNDS AND METHODS FOR THE TARGETED DEGRADATION OF KRAS” (Arvinas Operations, Inc., priority 2022, published 2025).

The experiment deals with T1, AsPC-1 HiBiT-KRASG12D (Homo sapiens, UniProt P01116, G12D).
T1 construct: insert the HiBiT tag onto the N-terminus of one or more of the endogenous KRAS alleles; endogenous in cells; host or cells: AsPC-1 (ATCC CRL-1682), CRISPR-Cas9 knock-in clone, one tagged allele
The experiment can be described thus: HiBiT degradation assay (G12D), AsPC-1 HiBiT-KRASG12D cells. Type of experiment: cell-based. The note with it: 24 hours treatment; for Dmax: ASPC1, AsPC-1 HiBiT-KRASG12D cells, maximum degradation observed; for DC50: AsPC-1 HiBiT-KRASG12D cells, HiBiT luminescence. Put shortly:
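Steps: treat HiBiT-KRASG12D AsPC-1 cells with compound for 24 hours; add alamar blue to 1× and incubate 4 hours to assess viability; wash with PBS; add HiBiT lytic detection reagent, incubate 45 minutes at room temperature; read luminescence. Viability fluorescence is normalized to DMSO wells.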
In general terms: With HiBiT, luminescence reflects the tagged protein that the partner subunit can reach.

T1 sequence (P01116 1-188 isoform P01116-2 G12D): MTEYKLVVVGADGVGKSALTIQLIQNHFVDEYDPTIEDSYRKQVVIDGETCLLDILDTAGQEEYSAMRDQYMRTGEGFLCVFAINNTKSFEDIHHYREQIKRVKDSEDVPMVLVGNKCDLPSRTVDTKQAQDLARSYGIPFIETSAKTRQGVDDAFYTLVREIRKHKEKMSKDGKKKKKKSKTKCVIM

`CCc1cccc2cc(O)cc(-c3ncc4c(N5CC6CCC(C5)N6)nc(OC[C@]56CCCN5[C@H](COC(=O)N5CCN(c7cc([C@H](C(=O)N8C[C@H](O)C[C@H]8C(=O)N[C@@H](C)c8ccc(-c9scnc9C)cc8)C(C)C)on7)[C@H](C)C5)CC6)nc4c3F)c12` [Compound 130, [(3S,7aR)-7a-{[(4-{3,8-diazabicyclo[3.2.1]octan-3-yl}-7-(8-ethyl-3-hydroxynaphthalen-1-yl)-8-fluoropyrido[4,3-d]pyrimidin-2-yl)oxy]methyl}-hexahydro-1H-pyrrolizin-3-yl]methyl (3R)-4-{5-[(2R)-1-[(2S,4R)-4-hydroxy-2-{[(1S)-1-[4-(4-methyl-1,3-thiazol-5-yl)phenyl]ethyl]carbamoyl}pyrrolidin-1-yl]-3-methyl-1-oxobutan-2-yl]-1,2-oxazol-3-yl}-3-methylpiperazine-1-carboxylate] returned a Dmax of 80 to 100% and a DC50 of under 600 nM.
As to `CCc1cccc2cc(O)cc(-c3ncc4c(N5CC6CCC(C5)N6)nc(OC[C@]56CCCN5[C@H](COC(=O)N5CCN(c7cc([C@@H](C(=O)N8C[C@H](O)C[C@H]8C(=O)N[C@@H](C)c8ccc(-c9scnc9C)cc8)C(C)C)on7)[C@H](C)C5)CC6)nc4c3F)c12` [Compound 131, [(3S,7aR)-7a-{[(4-{3,8-diazabicyclo[3.2.1]octan-3-yl}-7-(8-ethyl-3-hydroxynaphthalen-1-yl)-8-fluoropyrido[4,3-d]pyrimidin-2-yl)oxy]methyl}-hexahydro-1H-pyrrolizin-3-yl]methyl (3R)-4-{5-[(2S)-1-[(2S,4R)-4-hydroxy-2-{[(1S)-1-[4-(4-methyl-1,3-thiazol-5-yl)phenyl]ethyl]carbamoyl}pyrrolidin-1-yl]-3-methyl-1-oxobutan-2-yl]-1,2-oxazol-3-yl}-3-methylpiperazine-1-carboxylate], the Dmax is under 20% and the DC50 is under 600 nM.
For `CCc1cccc2cc(O)cc(-c3ncc4c(N5CC6CCC(C5)N6)nc(OC[C@]56CCCN5[C@H](COC(=O)N5CCN(c7cc([C@H](C(=O)N8C[C@H](O)C[C@H]8C(=O)N[C@@H](C)c8ccc(-c9scnc9C)cc8)C(C)C)on7)C[C@@H]5C)CC6)nc4c3F)c12` [Compound 132, [(3S,7aR)-7a-{[(4-{3,8-diazabicyclo[3.2.1]octan-3-yl}-7-(8-ethyl-3-hydroxynaphthalen-1-yl)-8-fluoropyrido[4,3-d]pyrimidin-2-yl)oxy]methyl}-hexahydro-1H-pyrrolizin-3-yl]methyl (2S)-4-{5-[(2R)-1-[(2S,4R)-4-hydroxy-2-{[(1S)-1-[4-(4-methyl-1,3-thiazol-5-yl)phenyl]ethyl]carbamoyl}pyrrolidin-1-yl]-3-methyl-1-oxobutan-2-yl]-1,2-oxazol-3-yl}-2-methylpiperazine-1-carboxylate], the Dmax lay within 80 to 100% and the DC50 is under 600 nM.
In turn, `CCc1cccc2cc(O)cc(-c3ncc4c(N5CC6CCC(C5)N6)nc(OC[C@]56CCCN5[C@H](COC(=O)N5CCN(c7cc([C@@H](C(=O)N8C[C@H](O)C[C@H]8C(=O)N[C@@H](C)c8ccc(-c9scnc9C)cc8)C(C)C)on7)C[C@@H]5C)CC6)nc4c3F)c12` [Compound 133, [(3S,7aR)-7a-{[(4-{3,8-diazabicyclo[3.2.1]octan-3-yl}-7-(8-ethyl-3-hydroxynaphthalen-1-yl)-8-fluoropyrido[4,3-d]pyrimidin-2-yl)oxy]methyl}-hexahydro-1H-pyrrolizin-3-yl]methyl (2S)-4-{5-[(2S)-1-[(2S,4R)-4-hydroxy-2-{[(1S)-1-[4-(4-methyl-1,3-thiazol-5-yl)phenyl]ethyl]carbamoyl}pyrrolidin-1-yl]-3-methyl-1-oxobutan-2-yl]-1,2-oxazol-3-yl}-2-methylpiperazine-1-carboxylate] gave a Dmax of under 20% and a 50% degradation concentration (DC50) of under 600 nM.
The molecule `CCc1cccc2cc(O)cc(-c3ncc4c(N5CC6CCC(C5)N6)nc(OC[C@]56CCCN5[C@H](COC(=O)N5CC7(C5)CN(c5cc([C@@H](C(=O)N8C[C@H](O)C[C@H]8C(=O)N[C@@H](C)c8ccc(-c9scnc9C)cc8)C(C)C)on5)C7)CC6)nc4c3F)c12` [Compound 144, [(3S,7aR)-7a-{[(4-{3,8-diazabicyclo[3.2.1]octan-3-yl}-7-(8-ethyl-3-hydroxynaphthalen-1-yl)-8-fluoropyrido[4,3-d]pyrimidin-2-yl)oxy]methyl}-hexahydro-1H-pyrrolizin-3-yl]methyl 6-{5-[(2S)-1-[(2S,4R)-4-hydroxy-2-{[(1S)-1-[4-(4-methyl-1,3-thiazol-5-yl)phenyl]ethyl]carbamoyl}pyrrolidin-1-yl]-3-methyl-1-oxobutan-2-yl]-1,2-oxazol-3-yl}-2,6-diazaspiro[3.3]heptane-2-carboxylate] displayed a Dmax of 20 to 60% and a DC50 of 600 to 1000 nM.
Molecule `C#Cc1c(F)ccc2cc(O)cc(-c3ncc4c(N5CC6CCC(C5)N6)nc(OCCN5CCC(F)(COc6cc([C@H](C(=O)N7C[C@H](O)C[C@H]7C(=O)N[C@@H](C)c7ccc(-c8scnc8C)cc7)C(C)C)on6)CC5)nc4c3F)c12` [Compound 153, (2S,4R)-1-[(2R)-2-{3-[(1-{2-[(4-{3,8-diazabicyclo[3.2.1]octan-3-yl}-7-(8-ethynyl-7-fluoro-3-hydroxynaphthalen-1-yl)-8-fluoropyrido[4,3-d]pyrimidin-2-yl)oxy]ethyl}-4-fluoropiperidin-4-yl)methoxy]-1,2-oxazol-5-yl}-3-methylbutanoyl]-4-hydroxy-N-[(1S)-1-[4-(4-methyl-1,3-thiazol-5-yl)phenyl]ethyl]pyrrolidine-2-carboxamide] registered a Dmax of 80 to 100% and a DC50 of under 600 nM.
As to `C#Cc1c(F)ccc2cc(O)cc(-c3ncc4c(N5CC6CCC(C5)N6)nc(OCCN5CCC(F)(COc6cc([C@@H](C(=O)N7C[C@H](O)C[C@H]7C(=O)N[C@@H](C)c7ccc(-c8scnc8C)cc7)C(C)C)on6)CC5)nc4c3F)c12` [Compound 154, (2S,4R)-1-[(2S)-2-{3-[(1-{2-[(4-{3,8-diazabicyclo[3.2.1]octan-3-yl}-7-(8-ethynyl-7-fluoro-3-hydroxynaphthalen-1-yl)-8-fluoropyrido[4,3-d]pyrimidin-2-yl)oxy]ethyl}-4-fluoropiperidin-4-yl)methoxy]-1,2-oxazol-5-yl}-3-methylbutanoyl]-4-hydroxy-N-[(1S)-1-[4-(4-methyl-1,3-thiazol-5-yl)phenyl]ethyl]pyrrolidine-2-carboxamide], the maximal degradation (Dmax) is 80 to 100% and the DC50 was under 600 nM.
Turning to `CCc1cccc2cc(O)cc(-c3ncc4c(N5CC6CCC(C5)N6)nc(OCCN5CCC(F)(CN6CCN(c7cnc(C(=O)N[C@H](C(=O)N8C[C@H](O)C[C@H]8C(=O)N[C@@H](C)c8ccc(-c9scnc9C)cc8)C(C)(C)C)cn7)CC6)CC5)nc4c3F)c12` [Compound 155, 5-{4-[(1-{2-[(4-{3,8-diazabicyclo[3.2.1]octan-3-yl}-7-(8-ethyl-3-hydroxynaphthalen-1-yl)-8-fluoropyrido[4,3-d]pyrimidin-2-yl)oxy]ethyl}-4-fluoropiperidin-4-yl)methyl]piperazin-1-yl}-N-[(2S)-1-[(2S,4R)-4-hydroxy-2-{[(1S)-1-[4-(4-methyl-1,3-thiazol-5-yl)phenyl]ethyl]carbamoyl}pyrrolidin-1-yl]-3,3-dimethyl-1-oxobutan-2-yl]pyrazine-2-carboxamide], the Dmax lay within 60 to 80% and the DC50 was under 600 nM.
In the same order, the values of `C#Cc1c(F)ccc2cc(O)cc(-c3ncc4c(N5CC6CCC(C5)N6)nc(OCCN5CCC(CC6CN(c7cc([C@H](C(=O)N8C[C@H](O)C[C@H]8C(=O)N[C@@H](C)c8ccc(-c9ccnn9C)cc8)C(C)C)on7)C6)CC5)nc4c3F)c12` [Compound 156, (2S,4R)-1-[(2R)-2-(3-{3-[(1-{2-[(4-{3,8-diazabicyclo[3.2.1]octan-3-yl}-7-(8-ethynyl-7-fluoro-3-hydroxynaphthalen-1-yl)-8-fluoropyrido[4,3-d]pyrimidin-2-yl)oxy]ethyl}piperidin-4-yl)methyl]azetidin-1-yl}-1,2-oxazol-5-yl)-3-methylbutanoyl]-4-hydroxy-N-[(1S)-1-[4-(1-methyl-1H-pyrazol-5-yl)phenyl]ethyl]pyrrolidine-2-carboxamide] are 80 to 100% and under 600 nM.
The molecule `C#Cc1c(F)ccc2cc(O)cc(-c3ncc4c(N5CC6CCC(C5)N6)nc(OCCN5CCC(CC6(F)CCN(CC(=O)N[C@H](C(=O)N7C[C@H](O)C[C@H]7C(=O)N[C@@H](C)c7ccc(-c8scnc8C)cc7)C(C)(C)C)CC6)CC5)nc4c3F)c12` [Compound 157, (2S,4R)-1-[(2S)-2-(2-{4-[(1-{2-[(4-{3,8-diazabicyclo[3.2.1]octan-3-yl}-7-(8-ethynyl-7-fluoro-3-hydroxynaphthalen-1-yl)-8-fluoropyrido[4,3-d]pyrimidin-2-yl)oxy]ethyl}piperidin-4-yl)methyl]-4-fluoropiperidin-1-yl}acetamido)-3,3-dimethylbutanoyl]-4-hydroxy-N-[(1S)-1-[4-(4-methyl-1,3-thiazol-5-yl)phenyl]ethyl]pyrrolidine-2-carboxamide] displayed a Dmax of 80 to 100% and a DC50 of under 600 nM.
As for `C#Cc1c(F)ccc2cc(O)cc(-c3ncc4c(N5CC6CCC(C5)N6)nc(OCCN5CCC(OC6CN(c7cc([C@@H](C(=O)N8C[C@H](O)C[C@H]8C(=O)N[C@@H](C)c8ccc(-c9scnc9C)cc8)C(C)C)on7)C6)CC5)nc4c3F)c12` [Compound 158], the Dmax was 80 to 100% and the DC50 is under 600 nM.
